According to US7405216B2, “Stable crystalline form of bifeprunox mesylate (7-[4-([1,1′-biphenyl]-3-ylmethyl)-1-piperazinyl]-2(3H)-benzoxazolone monomethanesulfonate)” (Solvay Pharmaceuticals, B.V., priority 2004, dated 2008):

Test: Stability of the crystalline polymorphic forms of bifeprunox mesylate
Assay type: physicochemical
Conditions: for thermodynamic stability of the polymorphic form: solid crystalline form, found during further investigations, monomethanesulfonate

Row | SMILES | conversion of the polymorphic form (even at high atmospheric humidity or higher temperature) | thermodynamic stability of the polymorphic form
1 | O=c1[nH]c2cccc(N3CCN(Cc4cccc(-c5ccccc5)c4)CC3)c2o1 [polymorph α, 7-[4-([1,1′-biphenyl]-3-ylmethyl)-1-piperazinyl]-2(3H)-benzoxazolone monomethanesulfonate] | does not undergo conversion | more thermodynamically stable
2 | O=c1[nH]c2cccc(N3CCN(Cc4cccc(-c5ccccc5)c4)CC3)c2o1 [polymorph γ, 7-[4-([1,1′-biphenyl]-3-ylmethyl)-1-piperazinyl]-2(3H)-benzoxazolone monomethanesulfonate] | – | metastable
3 | O=c1[nH]c2cccc(N3CCN(Cc4cccc(-c5ccccc5)c4)CC3)c2o1 [polymorph δ, 7-[4-([1,1′-biphenyl]-3-ylmethyl)-1-piperazinyl]-2(3H)-benzoxazolone monomethanesulfonate] | – | metastable
